Paper PMC8201173, “Inhibition of Carbonic Anhydrase IX Promotes Apoptosis through Intracellular pH Level Alterations in Cervical Cancer Cells” (International Journal of Molecular Sciences, 2021)

System: HEK-293
Test: WST-1 cytotoxicity assay, HEK-293
Type: cell-based
Conditions: Homo sapiens
Protocol: We used cancer and normal cell lines purchased from ATCC (American Type Culture Collection) and ECACC (European Collection of Authenticated Cell Cultures) and stored in liquid nitrogen. HT-29 (ATCC: HTB-38, colon adenoma cancer), HeLa (ATCC: CCL-2, cervix adenoma cancer cell), MDA-MB-231 (ATCC: HTB-26, breast adenoma cancer cell), and HEK-293 (ATCC: CRL-1573, embryonic kidney epithelial cell) cell lines were incubated in DMEM-F12 (Sigma-Aldrich, Germany), including 10% Fetal Bovine Serum (FBS), 100 μg/mL streptomycin/100 IU/mL penicillin, at 37 °C in an incubator containing 5% CO2, 95% air in a humid atmosphere. PNT-1A (ECACC: 95012614, normal prostate cells) cell line was incubated in RPMI-1640 medium, including %10 FBS, 100 μg/mL streptomycin/100 IU/mL penicillin, at 37 °C in an incubator containing 5% CO2, 95% air in a humid atmosphere.
The cytotoxic effects of compound E were evaluated with WST kit (Roche, Basel, Switzerland) in accordance with manufacturer protocols. The cells were planted in 96 well plates (10^4 cells per well). After 24 h of incubation, compound E at doses of 0, 2.5, 5, 10, 25, 50, 100, and 200 μM was administrated on the cell lines for 24, 48, and 72 h, and 5-FU on the control cell line with the same doses. WST-1 reactive of 10 µL was added in all wells. Following 4 h incubation, the measurements were carried out in a plate reader (Spectramax M5, BioTek, VT, USA) at wavelengths of 450 and 630 nm. Consequently, graphs were created, and the IC50 values of compound E and 5-fluorouracil were calculated. Selectivity index (SI) can be defined as the ratio of the toxic concentration of a sample against its effective compound concentration.

Q: Which IC50 (HEK293, HEK-293, 24 h) does the source give for `NS(=O)(=O)c1ccc(CCNCc2cc(Br)ccc2O)cc1` [Compound E, 4-(2-((5-bromo-2-hydroxybenzyl)amino)ethyl) benzenesulphonamide] here?
A: Its IC50 is 152 ± 3.44 µM.

Q: And the IC50 (HEK293, HEK-293, 48 h)?
A: Its IC50 is 296 ± 4.67 µM.

Q: And the IC50 (HEK293, HEK-293, 72 h)?
A: Its IC50 is 76.1 ± 2.1 µM.
